This assay deals with Jurkat cell SOCE. Kind of assay: Thapsigargin-induced SOCE in Jurkat cells, Indo-1 [Ca2+]cyt measurement. Type of assay: cell-based, human. As to conditions: Jurkat cells; for Ki: 1 µM thapsigargin 10 min, compound added 30 s prior to 1 mM CaCl2. Here is the method:
To visualize SOCE, we performed a classical protocol: Jurkat cells in Ca^2+-free HBS medium are stimulated by 1 µM thapsigargin (TG, black arrow, Figure 2A) during 600 s to allow the release of Ca^2+ ions by the ER, and the subsequent opening of the store-operated Ca^2+ channels (SOCC). Addition of 1 mM CaCl2 allowed for a massive entry of Ca^2+ ions through SOCC leading thus to an increase of the cytosolic calcium concentration ([Ca^2+]cyt). To test 2-APB and its analogues, different concentrations of compounds were added 30 s prior to Ca^2+ addition.
[Ca^2+]cyt was recorded by a fluorimetric ratio technique as previously described. Leukocytes were spun and resuspended at a density of 10^6 cells/mL in Hepes buffered saline (HBS; 135 mM NaCl, 5.9 mM KCl, 1.2 mM MgCl2, 11.6 mM Hepes, 11.5 mM glucose adjusted to pH 7.3 with NaOH). Due to the presence of 0.002% Ca^2+ in the NaCl, this HBS medium contained 0.1 mM of Ca^2+. Then, cells were incubated in the dark with 4 μM Indo-1-AM for one hour at room temperature under slow agitation. Cells were then centrifuged and resuspended in HBS medium before measurement. To perform the experiments, 0.5 to 1 × 10^6 cells were suspended in 2 mL HBS in a quartz cuvette and inserted into a spectrofluorophotometer (RF-1501 Shimadzu Corporation, Kyoto, Japan) connected to a PC computer (Dell Computer Corp., Montpellier, France). A temperature of 37°C was maintained by circulating water from a bath. Ultraviolet light of 360 nm was used for excitation of Indo-1, and emissions at 405 and 480 nm were recorded. Background and autofluorescence of the cell suspension were subtracted from the recordings. The maximum Indo-1 fluorescence (Rmax) was obtained by adding 1 µM ionomycin to the cell suspension in the presence of 10 mM extracellular CaCl2. Minimum fluorescence was determined following the depletion of external Ca^2+ with 5 mM EGTA.
To visualize the SOCE, cells were placed into the quartz cuvette and 0.5 EGTA was added just before the beginning of the recordings. To induce the SOCE, the cells were treated with 1 μM thapsigargin (TG) during 10 min in Ca^2+-free HBS to induce Ca^2+ release from the ER and the opening of SOCE channels. Then, 1 mM CaCl2 was added to measure the change in [Ca^2+]cyt subsequently to Ca^2+ influx. In the dose-response experiments, different concentrations of 2-APB and its analogs were added 30 s prior to Ca^2+ readdition.

Where “and” joins values, the source holds several entries; their conditions need not be identical. Identical values can stand only once. Like-named read-outs stand apart in the source and are kept apart here.

“2-(dibiphenyl-4-ylboryloxy)ethanamine [P11]”: the “concentration of complete/full SOCE inhibition” value is recorded as “below 1 µM”. In addition, the Ki (usually a measure of affinity in units of concentration, obtained from inhibition or displacement) (read-out: Ki (nM), inhibition constant on SOCE) was ~75 nM and 75 nM. For the setting “read-out: Ki (µM), inhibition constant on SOCE”, the inhibition constant Ki was less than 1000 nM. The “concentration at which SOCE is totally blocked” value (Figure 2B) is on record as more than 100 nM.

The values are drawn from PMC7767506, “Synthesis and Characterization of Store-Operated Calcium Entry Inhibitors Active in the Submicromolar Range” (International Journal of Molecular Sciences, 2020).
